This is an account of results in patent US11217811B2, “Unique redox-active phenothiazine combinations with depressed melting points for increased solubility and method of use in energy storage and in redox flow batteries” (University of Kentucky Research Foundation, priority 2019, dated 2022).

Converted amounts (≈) assume the structure as drawn. Like-named read-outs stand apart in the source and are kept apart here.

The nature of this data set: Solubility in acetonitrile, determined by 1H NMR spectroscopy. It counts as physicochemical. The method, then:
The solubility of each of such mixtures was determined according to the following procedure: acetonitrile was added to the vials containing the samples in aliquots ranging from 0.1 to 1 mL; after every aliquot of solvent was added, each sample was shaken, sonicated, and lightly warmed up with a heat gun (about 40° C.); if the suspended solid persisted, another aliquot was added, and the process repeated until a clear solution was obtained. The warm solution was left to cool down to room temperature: if any solid formed, more solvent was added, and the process repeated until the solution remained clear indefinitely. The solubility was then determined using ^1H NMR spectroscopy. […] The results are summarized in Table 1: in both the cases examined, the solubility of EPT increased substantially when mixed with MEPT.

Where [1] appears, read: organic solvent or mixture, thermodynamic from solid, pure compound in acetonitrile, room temperature, read-out: Solubility of the single component.
Setting [2] is: pure compound in acetonitrile, room temperature.
[3] abbreviates: acetonitrile, RPT-TFSI and the corresponding binary blend.

Consider `CCN1c2ccccc2Sc2ccccc21` [EPT, N-ethylphenothiazine], for which the solubility under setting [1] amounted to 110 mM (≈ 25 mg/mL). With `CCN1c2ccccc2[S+]c2ccccc21.F[B-](F)(F)F` [EPT-BF4, EPT-tetrafluoroborate], the “Solubility of the single component” value under setting [2] is 330 mM. `CCN1c2ccccc2[S+]c2ccccc21.O=S(=O)([N-]S(=O)(=O)C(F)(F)F)C(F)(F)F` [EPT-TFSI, EPT-bis(trifluoromethanesulfonyl)imide] gave a solubility under setting [3] of 370 mM. Turning to `COCCN1c2ccccc2Sc2ccccc21` [MEPT, N-(2-methoxyethyl)phenothiazine], under “acetonitrile”, the Miscibility in acetonitrile result is listed as “miscible in acetonitrile in all ratios”. In the case of `COCCN1c2ccccc2[S+]c2ccccc21.F[B-](F)(F)F` [MEPT-BF4, MEPT-tetrafluoroborate], the “Solubility of the single component” value under setting [2] was 310 mM.

Consider `CN1c2ccccc2Sc2ccccc21` [MPT, N-methylphenothiazine], for which the solubility under setting [1] turned out to be 240 mM (≈ 51.2 mg/mL). In turn, `CN1c2ccccc2[S+]c2ccccc21.O=S(=O)([N-]S(=O)(=O)C(F)(F)F)C(F)(F)F` [MPT-TFSI, MPT-bis(trifluoromethanesulfonyl)imide] yielded a solubility under setting [3] of 1500 mM. With `c1ccc(N2c3ccccc3Sc3ccccc32)cc1` [PhPT, N-phenylphenothiazine], the solubility under setting [1] was 140 mM (≈ 38.6 mg/mL). Take `O=S(=O)([N-]S(=O)(=O)C(F)(F)F)C(F)(F)F.c1ccc(N2c3ccccc3[S+]c3ccccc32)cc1` [PhPT-TFSI, PhPT-bis(trifluoromethanesulfonyl)imide]: under setting [3], the solubility is 1640 mM.

Broadly, the solubility is the dissolved amount per volume that the medium holds.
